How the values were obtained:
[1] = target: human α7 neuronal nicotinic receptor (Homo sapiens, UniProt P36544); test: biochemical; format: binding; conditions: read-out: % inhibition N neuronal alpha-BGTX-sensitive (alpha 7) (antagonist radioligand)
[2] = target: human muscle-type nicotinic receptor (Homo sapiens, UniProt P02708+P07510+Q07001); test: biochemical; format: binding; conditions: read-out: % inhibition N muscle-type (h) (antagonist radioligand)
[3] = relative to morphine; cited from earlier work
[4] = target: T1, human dopamine D1 receptor (Homo sapiens, UniProt P21728); test: Human dopamine D1 receptor radioligand binding assay (antagonist radioligand); conditions: 1 μmmole test compound; 0.3 nM [3H]SCH 23390; transfected CHO cell membranes; one single experiment; 0.0003 µM
T1 construct: expressed in transfected cells; host or cells: CHO cells (membrane homogenates)
Procedure: Human Dopamine D1 Receptor (Antagonist Radioligand):
The purpose is to evaluate the affinity of compounds for the human dopamine D1 receptor in transfected CHO cells determined in a radioligand binding assay according to Zhou et al in Nature (1990) 347:76. The experimental protocol is as follows. Cell membrane homogenates (48 μg protein) are incubated for 60 minutes at 22° C. with 0.3 nM [^3H]SCH 23390 in the absence or presence of the test compound in a buffer containing 50 mM Tris-HCl (pH 7.4), 5 mM KCl, 5 mM MgCl2, 1.5 mM CaCl2 and 5 mM EDTA. Non-specific binding is determined in the presence of 1 μM SCH 23390. Following incubation, the samples are filtered rapidly under vacuum through glass fiber filters (GF/B, Packard) presoaked with 0.3% PEI and rinsed several times with ice-cold 50 mM Tris-HCl using a 96-sample cell harvester (Unifilter, Packard). The filters are dried then counted for radioactivity in a scintillation counter (Topcount, Packard) using a scintillation cocktail (Microscint 0, Packard). The results are expressed as a percent inhibition of the control radioligand specific binding. The standard reference compound is SCH 23390, which is tested in each experiment at several concentrations to obtain a competition curve from which its IC50 is calculated, and from which the % inhibition at 1 μM as indicated in the following table is obtained.

T1 sequence (P21728 whole entry): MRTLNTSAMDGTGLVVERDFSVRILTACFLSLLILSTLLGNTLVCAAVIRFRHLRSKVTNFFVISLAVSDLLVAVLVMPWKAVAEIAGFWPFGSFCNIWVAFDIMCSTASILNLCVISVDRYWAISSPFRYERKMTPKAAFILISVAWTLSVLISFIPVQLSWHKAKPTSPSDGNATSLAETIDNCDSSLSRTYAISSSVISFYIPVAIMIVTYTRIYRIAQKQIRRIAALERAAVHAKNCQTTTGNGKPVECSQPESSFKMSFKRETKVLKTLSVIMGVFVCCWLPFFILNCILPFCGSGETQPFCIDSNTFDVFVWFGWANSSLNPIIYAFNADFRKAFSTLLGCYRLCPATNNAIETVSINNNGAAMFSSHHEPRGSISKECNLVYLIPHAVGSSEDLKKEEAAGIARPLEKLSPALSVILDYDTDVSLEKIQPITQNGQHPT
Chain of human muscle-type nicotinic receptor (P07510 23-517): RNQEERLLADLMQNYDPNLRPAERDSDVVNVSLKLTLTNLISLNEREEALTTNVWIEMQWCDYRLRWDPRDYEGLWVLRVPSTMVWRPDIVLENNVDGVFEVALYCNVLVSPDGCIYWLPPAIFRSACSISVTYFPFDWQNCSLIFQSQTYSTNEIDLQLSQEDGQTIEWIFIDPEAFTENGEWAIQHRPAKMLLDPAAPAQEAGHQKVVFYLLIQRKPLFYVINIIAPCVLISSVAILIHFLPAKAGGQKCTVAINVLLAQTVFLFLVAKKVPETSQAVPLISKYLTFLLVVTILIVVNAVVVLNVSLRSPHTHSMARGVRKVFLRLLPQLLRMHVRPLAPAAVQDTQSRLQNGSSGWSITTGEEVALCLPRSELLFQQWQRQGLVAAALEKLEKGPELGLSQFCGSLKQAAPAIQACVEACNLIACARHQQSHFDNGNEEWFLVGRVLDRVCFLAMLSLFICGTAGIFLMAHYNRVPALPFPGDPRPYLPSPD
Chain of human muscle-type nicotinic receptor (Q07001 22-517): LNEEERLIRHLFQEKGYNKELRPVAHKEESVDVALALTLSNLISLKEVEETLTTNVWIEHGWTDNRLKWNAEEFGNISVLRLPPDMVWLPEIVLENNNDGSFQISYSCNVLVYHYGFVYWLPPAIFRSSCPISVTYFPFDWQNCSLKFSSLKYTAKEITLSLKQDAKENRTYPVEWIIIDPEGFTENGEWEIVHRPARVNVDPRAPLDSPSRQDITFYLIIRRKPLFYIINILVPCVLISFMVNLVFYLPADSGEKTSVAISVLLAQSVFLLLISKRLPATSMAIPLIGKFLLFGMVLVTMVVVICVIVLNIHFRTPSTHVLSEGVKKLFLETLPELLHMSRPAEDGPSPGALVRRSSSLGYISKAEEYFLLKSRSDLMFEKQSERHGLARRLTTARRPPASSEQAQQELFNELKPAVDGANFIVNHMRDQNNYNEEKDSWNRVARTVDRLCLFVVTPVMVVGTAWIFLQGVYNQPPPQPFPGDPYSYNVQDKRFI
Chain of human muscle-type nicotinic receptor (P02708 21-457): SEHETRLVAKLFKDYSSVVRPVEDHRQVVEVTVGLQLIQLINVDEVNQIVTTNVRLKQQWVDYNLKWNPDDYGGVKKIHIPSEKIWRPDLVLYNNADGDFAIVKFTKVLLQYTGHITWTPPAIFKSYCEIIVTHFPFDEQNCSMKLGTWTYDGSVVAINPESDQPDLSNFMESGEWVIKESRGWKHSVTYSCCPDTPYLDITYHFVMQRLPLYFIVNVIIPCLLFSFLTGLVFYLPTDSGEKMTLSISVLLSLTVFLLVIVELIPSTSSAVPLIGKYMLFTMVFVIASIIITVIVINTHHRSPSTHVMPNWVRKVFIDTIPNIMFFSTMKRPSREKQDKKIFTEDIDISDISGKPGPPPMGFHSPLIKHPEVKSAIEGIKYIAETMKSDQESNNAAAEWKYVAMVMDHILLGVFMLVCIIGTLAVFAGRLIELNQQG
Chain of human muscle-type nicotinic receptor (P11230 24-501, further chain): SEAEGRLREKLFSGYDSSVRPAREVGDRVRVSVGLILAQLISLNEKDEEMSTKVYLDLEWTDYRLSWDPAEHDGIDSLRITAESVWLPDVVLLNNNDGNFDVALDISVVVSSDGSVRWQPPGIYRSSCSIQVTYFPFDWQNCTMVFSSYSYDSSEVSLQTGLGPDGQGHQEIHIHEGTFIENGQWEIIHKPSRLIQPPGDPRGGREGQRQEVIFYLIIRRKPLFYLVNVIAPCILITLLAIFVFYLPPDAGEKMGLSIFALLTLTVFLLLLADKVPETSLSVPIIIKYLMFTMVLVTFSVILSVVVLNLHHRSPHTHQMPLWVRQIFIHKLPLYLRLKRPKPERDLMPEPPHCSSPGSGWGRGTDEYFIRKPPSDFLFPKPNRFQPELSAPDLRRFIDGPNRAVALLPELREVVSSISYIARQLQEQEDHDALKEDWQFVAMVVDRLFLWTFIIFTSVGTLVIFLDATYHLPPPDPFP
Chain of human α7 neuronal nicotinic receptor (P36544 23-502): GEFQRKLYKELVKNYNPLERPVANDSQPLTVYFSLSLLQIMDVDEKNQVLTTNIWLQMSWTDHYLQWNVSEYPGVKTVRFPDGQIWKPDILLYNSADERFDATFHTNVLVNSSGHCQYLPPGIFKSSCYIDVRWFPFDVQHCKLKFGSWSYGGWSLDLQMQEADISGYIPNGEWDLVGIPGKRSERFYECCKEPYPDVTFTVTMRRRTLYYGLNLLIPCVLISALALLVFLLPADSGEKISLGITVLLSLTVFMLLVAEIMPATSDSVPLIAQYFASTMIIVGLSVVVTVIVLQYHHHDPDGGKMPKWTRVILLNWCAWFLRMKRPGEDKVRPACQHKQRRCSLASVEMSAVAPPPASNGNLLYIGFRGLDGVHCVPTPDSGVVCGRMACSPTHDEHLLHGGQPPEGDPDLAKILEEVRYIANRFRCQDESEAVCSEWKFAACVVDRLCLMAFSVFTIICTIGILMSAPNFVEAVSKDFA

## CCN1CCC2CC1(C(O)c1cccnc1)C2 (stereo not shown) [Compound 11]
[1]
  inhibition at 50 pM: -1%
[2]
  inhibition at 0.0005 µM: 17%

## Clc1ccc(C2CC3CCC2N3)cn1 (stereo not shown) [epibatidine]
[3]
  analgesic potency higher than that of morphine: about 200 fold

## CCN1CCC2CC1(C(O)c1cccnc1)C2 (stereo not shown) [Compound 19a]
[4]
  % inhibition D1 (h) (antagonist radioligand): 9%
